We go through 15 compounds from US20260152395A1, “SUSTAINED-RELEASE CHLORINE DIOXIDE GAS […] AND METHOD” (ABC MEDICAL CO., LTD., priority 2022, published 2026).

The data set is described as follows: Chlorine dioxide generation test 1: organic substance added to sodium chlorite solution, reactivity observed. The class given is physicochemical. On the set-up: key: high reaction rate (+++++) resulted in the initiation of chlorine dioxide gas generation relatively quickly within several hours to several days after the addition; intermediate reaction rate (+++) resulted in the initiation of chlorine dioxide gas generation within several days to several tens of days after the addition; The reaction initiation time of the organic substances with a slow reaction rate (+) is hard to specify. The note with it: organic substance added to 23% aqueous sodium chlorite; room temperature and refrigerated temperature. Here is the method: To investigate the reactivity with and the risk of sodium chlorite depending on the type of organic substance, each of organic substances in Table 1 was added to a 23% aqueous solution of sodium chlorite to observe the reactivity at room temperature and refrigerated temperature.

As to `OCC(O)CO` [Glycerol], the Reaction rate result is “+++++”. In the case of `O=C(CO)[C@@H](O)[C@H](O)[C@H](O)CO` [Fructose] it was “+++”. In the case of `CCO` [Ethanol] it was “+++++”. In the case of `[Na+].[OH-]` [Sodium hydroxide] it was “No reaction”. Take `OO` [Hydrogen peroxide]: the Reaction rate result was “No reaction”. The value for `N[C@@H](CCC(=O)[O-])C(=O)[O-].[Na+].[Na+]` [Sodium glutamate] was “+++++”; that for `[O]=[Ca]` [Calcium oxide] was “No reaction”.

In the case of `OC[C@H]1O[C@@](CO)(O[C@H]2O[C@H](CO)[C@@H](O)[C@H](O)[C@H]2O)[C@@H](O)[C@@H]1O` [Sucrose], the Reaction rate entry is on record as “+++”. For the compound `OC[C@@H](O)[C@@H](O)[C@H](O)[C@@H](O)CO` [Sorbitol], the Reaction rate result is given as “+++”. On to `O=C1NS(=O)(=O)c2ccccc21.[Na]` [Sodium saccharin], for which the Reaction rate result is listed as “+++”.

As to `[K+].[OH-]` [Potassium hydroxide], the Reaction rate result was “No reaction”. In the case of `O=C([O-])[O-].[Na+].[Na+]` [Sodium carbonate], the Reaction rate result is reported as “+”.

For `OC[C@H]1O[C@H](O[C@H]2O[C@H](CO)[C@@H](O)[C@H](O)[C@H]2O)[C@H](O)[C@@H](O)[C@@H]1O` [Trehalose], the Reaction rate result was “+++”. In the case of `[Cl-].[Na+]` [Salt] it was “No reaction”; in that of `[Ca+2].[OH-].[OH-]` [Calcium hydroxide], “No reaction”.
